Where two headings read alike, the source gives them in different places.
Experiments:
[1] = system: Human ovarian cancer cell line NIH:OVCAR-3; assay: Antitumor study (1), combination with carboplatin, NIH:OVCAR-3 xenograft; conditions: Day 21; ADC (1) 0.3 mg/kg iv Day 0, carboplatin 50 mg/kg iv Day 0
Description: Human ovarian cancer cell line NIH:OVCAR-3, which was purchased from ATCC, was suspended into Matrigel (Corning Inc.), subcutaneously transplanted at 1.0×10^7 cells into the right side of female nude mice, and the mice were randomly grouped 24 days after the transplantation (Day 0). The antibody-drug conjugate (1) (formula 4) (DAR: 7.9) was intravenously administered to the tail vein at a dose of 0.3 mg/kg on Day 0. […] Single administration groups of each drug, a combined administration group, and a solvent administration group as a control group were set up.

[2] = system: Human ovarian cancer cell line OV-90; assay: Antitumor study (2), combination with carboplatin, OV-90 xenograft; conditions: Day 21; ADC (1) 1 mg/kg iv Day 0, carboplatin 50 mg/kg iv Day 0
Description: Human ovarian cancer cell line OV-90, which was purchased from ATCC, was suspended into Matrigel (Corning Inc.), subcutaneously transplanted at 2.5×10^6 cells into the right side of female nude mice, and the mice were randomly grouped 14 days after the transplantation (Day 0). […] Single administration groups of each drug, a combined administration group, and a solvent administration group as a control group were set up.

[3] = system: Human ovarian cancer cell line OV-90; assay: Antitumor study (4), combination with gemcitabine, OV-90 xenograft; assay type: in vivo, mouse; conditions: Day 21; ADC (1) 3 mg/kg iv Day 0, gemcitabine 15 mg/kg iv Day 0, 7, 14
Description: (§1) Measurement and calculation formula: In the study, the major axis and minor axis of tumors were measured up to 3 times a week with an electronic digital caliper (CD15-CX, Mitutoyo Corp.), and the tumor volume (mm^3) was calculated. The calculation formula is as shown below.

[4] = system: Human ovarian cancer cell line OV-90; assay type: in vivo, mouse; conditions: Day 15; ADC (1) 10 mg/kg iv Day 0, carboplatin 50 mg/kg iv Day 0, paclitaxel 20 mg/kg iv Day 1
Description: Measurement and calculation formula: In the study, the major axis and minor axis of tumors were measured twice a week with an electronic digital caliper (CD15-CX, Mitutoyo Corp.), and the tumor volume (mm^3) was calculated. The calculation formula is as shown below.

[5] = system: Human ovarian cancer cell line NIH:OVCAR-3; assay: In vivo antitumor effect after long-term treatment of carboplatin and paclitaxel, NIH:OVCAR-3 xenograft; set-up: species or system mouse; conditions: carboplatin 50 mg/kg and paclitaxel 30 mg/kg iv
Description: as §1, with “below. Tumor volume (mm^3)=½×Major axis (mm)×[Minor axis (mm)]^2.” for “below.”
Carboplatin was diluted with physiological saline, and intravenously administered to the tail vein in a fluid volume of 10 mL/kg. Paclitaxel was dissolved with cremophor and ethanol (1:1), diluted with physiological saline, and then intravenously administered to the tail vein in a fluid volume of 10 mL/kg. The antibody-drug conjugate (formula 4) was diluted with ABS buffer (10 mM acetate buffer [pH 5.5], 5% sorbitol), and intravenously administered to the tail vein in a fluid volume of 10 mL/kg.
For clarity, the antibody comprised in the antibody-drug conjugate (1) administered is referred as “H01L02” in the present invention.

Compound: N.N.O=C([O-])C1(C(=O)[O-])CCC1.[Pt+2] [carboplatin]
- tumor growth inhibition (TGI) [1]: 47%
- TGI [2]: 23%

Compound: Nc1ccn([C@@H]2O[C@H](CO)[C@@H](O)C2(F)F)c(=O)n1 [gemcitabine]
- TGI [3]: 23%

Compound: carboplatin and paclitaxel
- TGI [4]: 65%
- tumor response to the first dosing ([5]; 12 mice): the tumor regressed in all cases
- time to tumor regrowth after the first dosing ([5]; regrowth in all most cases): ≤ 6 weeks

From patent publication US20240390512A1, “METHODS OF TREATING CHEMOTHERAPY-RESISTANT CANCER WITH AN ANTIBODY-DRUG CONJUGATE” (DAIICHI SANKYO COMPANY, LIMITED, priority 2021, published 2024)
